Values joined by “and” are separate entries in the source; they are usually repeats but may differ in a detail not shown here. Equal entries are not always repeated.
How the values were obtained:
[1] = tested on: mTau expression and phosphorylation, subcortical brain region; test: 30 day Hsp90 inhibitor treatment of JNPL3 mice; type: in vivo; conditions: 30 days
Protocol: To investigate whether modulation of mTau could be sustained over a longer Hsp90 inhibitor-treatment period, without being toxic to mice. JNPL3 mice were subjected for 30 days to these agents. Female JNPL3 mice 6.5 months of age (n=10) were administered i.p. vehicle (n=5) or one of the Hsp90 inhibitors, PU24FC1 (200 mg/kg) or PU-DZ8 (75 mg/kg) (n = 5), on a daily, five-times per week schedule and animals were sacrificed at 8 h following the last administered dose of inhibitor. […] Furthermore, no visible internal organ damage was detected at sacrifice upon gross inspection. Both S1 and P3 fractions extracted from the subcortical brain region of these mice were analyzed for mTau expression and phosphorylation.

[2] = tested on: mutant tau (HT7), Hsp70, p35; test: One dose PU-DZ8 in 6 month JNPL3 mice, S1 fraction Western blot (FIG. 9); type: in vivo; conditions: one dose 75 mg/kg IP, subcortical S1
Protocol: JNPL3 female mice 6 months of age were treated IP with the Hsp90 inhibitor PU-DZ8 (75 mg/kg) and sacrificed various times as indicated in FIG. 9. Brains were divided in subcortical and cortical regions and processed using the Greenberg and Davies extraction protocol (77). Sarkosyl soluble fractions (S1) extracted from the subcortical region were analyzed by WB for p35, cdk5, mutant tau (HT7), Hsp90 and Hsp70. Protein bands were normalized to actin and plotted as relative change from untreated mice.

[3] = tested on: p35 and tau phosphorylation in whole brains; test: Five day PU-DZ8 treatment of nine-month old JNPL3 mice; type: in vivo
Text: Transgenic mice: Transgenic mice, JNPL3 line (59) overexpressing mutant human tau (P301L, 4R0N) were used in this study. Mice were heterozygous and on a mixed hybrid genetic background composed of C57BL/DBA2/SW, as published in ref. 59. These mice develop NFTs in the basal telencephalon, diencephalon, brainstem, and spinal cord, with severe pathology accompanied by degeneration in the spinal cord leading to dystonia, paralysis, and death in mice >12 months in age. Nine month-old male JNPL3 mice (n=2) were treated intraperitoneally with PU-DZ8 or vehicle for 5 days. Mice were sacrificed 12 h after last treatment by cervical dislocation under anesthesia.
To further examine the effect of Hsp90 on tau phosphorylation, we used the JNPL3 line of mice expressing mutant (P301L) tau protein (59). Genetic analyses have linked mutations in the tau gene to FTDP-17 (60, 61). Over 20 distinct pathogenic mutations have been identified, with P301L as the most common mutation in tauophaties (33). […] The tau protein in JNPL3 is predominantly human and is phosphorylated at multiple sites: T181 (AT270). S202/T205 (AT8), T212 (AT100), T231 (AT180), S262, S396/S404, S409 and S422 (59, 62). […] The degree of p35 expression translated well into alleviation of phosphorylation. […] However, in mice where effects were more prominent and p35 expression declined to approximately 20% as compared to control, a significant effect on tau phosphorylation at S202/T205 and T212/S214 and a 50% reduction on T231 was observed. We could not detect a significant amount of tau phosphorylation at T181, site found to be hyperphosphorylated in PHF, tangles and neurofilaments (65). Again, whole brain expression of cdk5 was not affected (FIG. 3).

[4] = target: P-glycoprotein (Homo sapiens, UniProt P08183); test: P-glycoprotein substrate status; type: in vitro ADME
Text: Another characteristic which is indicative of the ability to cross the blood brain barrier is protein binding. […] It is not sufficient for a potential neurotherapeutic agent to move across the BBB—it also has to stay in the brain long enough to exert its desired action. This means that it also has to avoid being a substrate for a variety of transport proteins that work to extrude compounds from the brain.

[5] = Assessment of PU-DZ8 brain levels by HPLC/MS/MS; type: in vivo, mice; conditions: 75 mg/kg i.p.
Protocol: Assessment of PU-DZ8 brain levels. Concentrations of compound were determined and quantitated by a MRM mode using a tandem high-performance liquid chromatography-mass/mass spectrometry (HPLC/MS/MS). A weighed piece of brain was rinsed with saline isotonic solution, dried with gauze and then homogenized in mobile phase (acetonitrile (ACN)/0.1% formic acid=1.2/2.8, v/v). Haloperidol was added as internal standard. PU-DZ8 was extracted in methylene chloride, the organic layer was separated, speedily dried under vacuum and reconstituted in the mobile phase. Compound analysis was performed in the API 4000™ LC/MS/MS (Applied Biosystems) which was coupled with a Shimadzu LC system and a 96-well plate autosampler. A Gemini C18 column (5 μ particle size, 50×4.6 mm I.D.) was used for the LC separation. The analyte was eluted under an isocratic condition for 4 min at a flow rate of 0.4 mL/min.
One dose of PU-DZ8 (75 mg/kg) was administered intraperitoneally (i.p.) to female mice of 2.5-4 months in age (n=32) and animals were sacrificed in the interval of 0 to 36 h. Both aggregate-free Tau (S1) and insoluble Tau (P3) fractions were prepared from the subcortical and cortical regions of these mice. PU-DZ8 levels in the brain reached 0.35 μg/g (˜700 nM) at 4 h, and the pharmacologically relevant dose was retained for at least 12 h post-administration (0.2 μg/g, ˜390 nM).

[6] = ref. (2); cited from earlier work
[7] = tested on: p35 and Tau phosphorylation in cortical region; test: One dose PU-DZ8 in hTau mice; type: in vivo; conditions: 75 mg/kg i.p.
Protocol: The majority of Tau pathology in hTau mice is located in the cortical brain region. These mice express six isoforms of non-mutant human Tau, but develop AD-like Tau-pathology. Heat-stable fractions (S1) prepared from cortical homogenates of these mice indicate an age-related accumulation of Tau phosphorylated at putative cdk5 sites. […] Aggregate-free Tau (S1) fractions were prepared from the cortical region of these mice and human Tau levels assessed by immunobloting with an antibody specific for 3-repeat domain Tau (RD3). By analogy to experiments on primary neuronal cultures and WT Tau transfected cells, the Hsp90 inhibitor had no effect on soluble WT Tau expression. […] The monoclonal antibody CP13 is commonly used to detect Tau pathology in both early and more advanced stages of Tau aggregate accumulation (41).

Chain of P-glycoprotein (P08183 whole entry): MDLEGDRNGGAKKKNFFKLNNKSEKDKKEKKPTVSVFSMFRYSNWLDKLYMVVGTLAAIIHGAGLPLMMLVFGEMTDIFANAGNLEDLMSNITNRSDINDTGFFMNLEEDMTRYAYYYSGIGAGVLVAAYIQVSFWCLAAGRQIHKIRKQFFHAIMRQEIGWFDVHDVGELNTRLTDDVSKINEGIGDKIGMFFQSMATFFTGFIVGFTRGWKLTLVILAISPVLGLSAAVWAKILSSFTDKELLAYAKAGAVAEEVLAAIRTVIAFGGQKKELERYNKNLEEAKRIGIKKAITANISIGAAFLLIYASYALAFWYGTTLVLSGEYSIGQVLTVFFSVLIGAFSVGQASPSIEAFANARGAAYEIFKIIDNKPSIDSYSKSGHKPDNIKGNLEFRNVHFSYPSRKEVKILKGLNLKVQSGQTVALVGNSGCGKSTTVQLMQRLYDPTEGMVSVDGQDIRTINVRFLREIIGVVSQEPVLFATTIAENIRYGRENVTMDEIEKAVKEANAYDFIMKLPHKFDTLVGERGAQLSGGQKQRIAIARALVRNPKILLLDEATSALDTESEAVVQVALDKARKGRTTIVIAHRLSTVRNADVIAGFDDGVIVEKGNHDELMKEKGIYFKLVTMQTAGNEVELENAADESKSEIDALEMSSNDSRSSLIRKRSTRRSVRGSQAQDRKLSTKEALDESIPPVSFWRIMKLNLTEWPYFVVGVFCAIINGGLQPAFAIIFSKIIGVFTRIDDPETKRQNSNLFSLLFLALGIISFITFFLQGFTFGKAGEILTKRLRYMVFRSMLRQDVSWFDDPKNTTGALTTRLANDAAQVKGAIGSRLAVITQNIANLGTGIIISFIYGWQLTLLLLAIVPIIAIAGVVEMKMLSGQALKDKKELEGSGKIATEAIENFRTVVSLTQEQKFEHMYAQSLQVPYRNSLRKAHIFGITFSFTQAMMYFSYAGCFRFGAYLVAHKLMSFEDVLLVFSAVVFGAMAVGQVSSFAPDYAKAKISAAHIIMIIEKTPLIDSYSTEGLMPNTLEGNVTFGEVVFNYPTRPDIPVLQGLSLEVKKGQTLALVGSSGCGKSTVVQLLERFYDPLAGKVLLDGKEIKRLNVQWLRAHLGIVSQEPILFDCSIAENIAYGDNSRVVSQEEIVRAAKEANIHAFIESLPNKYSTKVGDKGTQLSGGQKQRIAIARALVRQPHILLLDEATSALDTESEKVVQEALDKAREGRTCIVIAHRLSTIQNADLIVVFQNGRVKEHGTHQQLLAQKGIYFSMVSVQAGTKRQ

CC(C)NCCCn1c(Cc2cc3c(cc2I)OCO3)nc2c(N)nc(F)nc21 [PU-DZ8]
p35 in S1 fraction [1]: p35 reduction | toxicity (animal weight, fur appearance, appetite, posture) ([1]; daily five-times per week i.p., PU24FC1 200 mg/kg, PU-DZ8 75 mg/kg): No toxicity was observed | Tau expression and phosphorylation in S1 and P3 fractions ([1]; hTau P<0.0001, T231 P=0.0034 (FIG. 15)): significant reduction | chaperone levels (hsp70) [2]: hsp70 increase | mutant protein mtau (HT7) [2]: degradation | levels of compound in brain ([3]; 5 days i.p.): Pharmacologically relevant levels | whole brain expression of cdk5 ([3]; 5 days i.p.): not affected | reduction in p35 levels ([3]; 5 days i.p., whole brain): 50% | effect on tau phosphorylation at S202/T205 (Ab AT-8) ([3]; at 50% reduction in p35 levels): approximately similar effect | reduction of phosphorylation on T212/S214 (Ab AT-100) ([3]; at 50% reduction in p35 levels): almost completely | effect on tau phosphorylated at T231 (Ab AT-180) ([3]; at a reduction by 50% in p35 expression): No significant effect | p35 expression as compared to control ([3]; mice where effects were more prominent): approximately 20% | reduction of tau phosphorylation on T231 ([3]; mice with p35 expression approximately 20% of control): 50% | P-gp substrate [4]: not a substrate of P-pg | level in the brain ([5]; 4 h): 0.35 μg/g and ~700 nM | level in the brain ([5]; 12 h post-administration): 0.2 μg/g and ~390 nM | water solubility [6]: water soluble | p35 levels ([7]; 8 h post-administration, P=0.0019): significant time-dependent reduction | Tau phosphorylation on Ser202 (antibody CP13) ([7]; 8 h post-administration, P=0.0078): alleviation of Tau phosphorylation | soluble WT Tau expression ([7]; hTau mice, cortical S1): no effect

Source: patent publication US20090298857A1, “Treatment of Neurodegenerative Diseases Through Inhibition of HSP90” (SLOAN-KETTERING INSTITUTE FOR CANCER RESEARCH, priority 2006, published 2009)
